Measured values taken from patent US20050119289A1 (priority 2002, published 2005).
In brackets after ≈: the same amount, converted by molar mass. Entries after “also recorded” stand apart in the source; their conditions may differ. Counter-ions that a name gives are not always drawn. Like-named read-outs stand apart in the source and are kept apart here.

Tests used:
P-gp [1] = target: T1, P-gp (Homo sapiens, UniProt P08183); experiment: Rhodamine 123 efflux assay, HeL023 cells; format: cell-based; parameters: nearly all (100±1%) the cells expressing high level of functional P-gp; endogenous in cells; host or cells: HeL023 human erythroleukemia cells; details: for inhibition of P-gp activity (in words): Rh123 efflux; for % of Rh123 negative cells: antagonist 10 μM, cells expressing P-gp activity
Protocol: (§1) 5×10^5 cells from each subline were loaded with 50 ng/ml of rhodamine 123 for 30 minutes at 37° C. in medium. The cells were washed and resuspended in dye-staining agent free medium for 3 hours at 37° C. to allow rhodamine 123 efflux. The cells were then washed twice and the fluorescence of intracellular rhodamine 123 were analysed with Flow cytometer (residual fluorescence FRES). The fluorescence was compared with loaded cells maintained at 4° C. to prevent drug export (maximal fluorescence FMAX). […] Cells from each subline that were not being exposed to rhodamine 123 were used as negative controls.
(§2) Rhodamine 123 (Rh 123) retention, a P-gp functional assay, was studied in all cell lines. This assay was performed by incubating cells with Rh 123 and determining Rh 123 accumulation by measuring its fluorescence. The maximum load of Rh 123 (FMAX) was quantified at the end of treatment harvesting the cells and storing them at 4° C. to prevent any active Rh123 efflux. The P-gp drug efflux was allowed incubating Rh 123-loaded cells in fresh new medium Rh 123-free for 3 hours at 37° C. After this incubation, residual fluorescence (FRES) was measured and compared to FMAx.

A375 melanoma cells = experiment: Colony formation assay; format: cell-based, human; details: for colony formation: 7 days
Protocol: FIG. 2 illustrates colony formation assay of A375 cells. Cells were treated with different drugs and colonies were counted after 7 days. The values represent the mean±SEM of four independent experiments. D=DMSO (control); T=paclitaxel, 0.75 ng/ml; M=MRE 3008F20, 10 μM; C═CI-IB-MECA, 10 μM; TM=paclitaxel plus MRE 3008F20; TC=paclitaxel plus CI-IB-MECA treated cells. *P<0.01 TM versus T. Analysis was by ANOVA followed by Dunnett's test.;
Control plates received the same volume of DMSO alone. After 7 days of growth at 37° C. in humidified atmosphere containing 5% CO2, the cells were fixed with absolute methanol for 5′ and stained with 1/10 Giemsa/phosphate-buffered saline (PBS) staining solution for 10 minutes. Staining solution was removed and colonies of greater than 30 cells were scored as survivors. For each treatment, six individual wells were scored.

P-gp [2] = target: T1, P-gp; experiment: Rhodamine 123 efflux assay, A375 cells; format: cell-based; parameters: endogenous in cells
Protocol: as §1, §2

A375 cells = experiment: Metabolic (MEK, ERK, p38MAPK) inhibitors on G2/M arrest and apoptosis, flow cytometry; format: cell-based, human
Protocol: Jurkat, HeL023 and PBMC cells were centrifuged for 10 minutes at 1000×g. […] The cells were washed with PBS and the DNA was stained with a PBS solution, containing 20 μg/ml of propidium iodide and 100 μg/ml of RNAse, at room temperature for 30 minutes. Cells were analysed by FACScan (Becton-Dickinson) and the content of DNA was evaluated by the Cell-LISYS program (Becton-Dickinson). […] Briefly, the cell cycle distribution is shown as the percentage of cells containing 2n (G1 phase), 4n (G2 and M phases), 4n>x>2n. DNA amount (S phase) judged by propidium iodide staining. The apoptotic population is the percentage of cells with DNA content lower than 2n.
U01 26 was used at 10 μM as inhibitor of MEK-1 and MEK-2 to prevent extracellular signal-regulated kinase ERK-1 and ERK-2 activation.

[3] = test system: human colon carcinoma HT29 cell line; experiment: MTT growth inhibitory assay, HT29; format: cell-based; details: for IC50: Homo sapiens, HT-29, HT29 cells, read-out: IC50 of anti-neoplastic agent used jointly with A3 antagonist; for HT29 more refractory than the A375 cell line: ratio of IC50 HT29 vs A375
Source text: (§3) The cells are sub-cultured twice a week.

[4] = test system: human lung carcinoma SKMES cell line; experiment: MTT growth inhibitory assay, SKMES; format: cell-based; details: SKMES cells, read-out: IC50 of anti-neoplastic agent used jointly with A3 antagonist
Source text: as §3

T1 sequence (P08183 whole entry): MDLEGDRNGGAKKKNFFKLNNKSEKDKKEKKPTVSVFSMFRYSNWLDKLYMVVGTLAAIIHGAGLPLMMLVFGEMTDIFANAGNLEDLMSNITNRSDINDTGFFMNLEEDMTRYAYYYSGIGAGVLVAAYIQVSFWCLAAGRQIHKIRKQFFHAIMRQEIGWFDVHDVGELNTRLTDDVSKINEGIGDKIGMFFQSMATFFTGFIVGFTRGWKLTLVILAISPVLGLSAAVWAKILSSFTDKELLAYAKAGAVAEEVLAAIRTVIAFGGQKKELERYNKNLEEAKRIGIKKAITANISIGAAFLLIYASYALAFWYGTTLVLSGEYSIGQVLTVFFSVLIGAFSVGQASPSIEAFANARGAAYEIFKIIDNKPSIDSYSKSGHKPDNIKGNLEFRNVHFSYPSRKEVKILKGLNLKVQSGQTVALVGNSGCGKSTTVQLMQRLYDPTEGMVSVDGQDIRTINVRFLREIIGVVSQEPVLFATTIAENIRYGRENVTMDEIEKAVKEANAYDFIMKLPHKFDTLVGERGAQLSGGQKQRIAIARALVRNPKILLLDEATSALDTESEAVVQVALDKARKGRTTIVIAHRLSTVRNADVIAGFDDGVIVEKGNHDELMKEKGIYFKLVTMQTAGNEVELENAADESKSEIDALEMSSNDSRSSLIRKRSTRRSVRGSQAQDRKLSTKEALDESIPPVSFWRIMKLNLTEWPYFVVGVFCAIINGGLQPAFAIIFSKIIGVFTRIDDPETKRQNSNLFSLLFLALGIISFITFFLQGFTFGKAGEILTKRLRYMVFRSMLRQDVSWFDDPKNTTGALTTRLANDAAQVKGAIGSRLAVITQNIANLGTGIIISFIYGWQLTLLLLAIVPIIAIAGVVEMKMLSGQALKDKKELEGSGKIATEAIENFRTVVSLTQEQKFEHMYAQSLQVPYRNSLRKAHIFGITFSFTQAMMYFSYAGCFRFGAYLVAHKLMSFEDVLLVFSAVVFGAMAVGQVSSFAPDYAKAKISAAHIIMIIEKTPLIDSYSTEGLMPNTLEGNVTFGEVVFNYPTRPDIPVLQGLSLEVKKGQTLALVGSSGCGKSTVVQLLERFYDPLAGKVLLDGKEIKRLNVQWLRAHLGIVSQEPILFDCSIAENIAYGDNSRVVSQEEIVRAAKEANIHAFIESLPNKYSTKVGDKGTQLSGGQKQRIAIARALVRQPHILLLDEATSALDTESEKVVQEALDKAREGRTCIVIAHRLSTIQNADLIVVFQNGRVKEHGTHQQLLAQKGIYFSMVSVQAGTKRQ

For Nc1nc2ccc(Cl)cc2c2nc(-c3ccco3)nn12 [CGS 15943, 5-amino-9-chloro-2-(furyl) 1,2,4-triazolo[1,5-c]quinazoline], the “inhibition of P-gp activity (in words)” value (P-gp [1]) was “much lower effect on P-gp activity”.

With CNC(=O)[C@H]1O[C@@H](n2cnc3c(NCc4cccc(I)c4)nc(Cl)nc32)[C@H](O)[C@@H]1O [CI-IB-MECA] the colony formation increased (A375 melanoma cells; CI-IB-MECA 10 μM alone vs DMSO control) was “about 30%”, the colony formation increased (A375 melanoma cells; CI-IB-MECA 10 μM combined with paclitaxel 0.75 ng/ml vs paclitaxel alone) was 32% and the colony formation (A375 melanoma cells; CI-IB-MECA 10 μM or MRE 3008F20 10 μM combined with paclitaxel 0.75 ng/ml) was 85 % of control. The colony formation (A375 melanoma cells; agent alone (CI-IB-MECA 10 μM; paclitaxel 0.75 ng/ml; MRE 3008F20 10 μM)) was 130 % of control.

With CCN(CC)c1ccc(NC(=O)Nc2nc3nn(C)cc3c3nc(-c4ccco4)nn23)cc1 [IL-10, N-1-(4-diethylamino-phenyl)-N′-5-[8-methyl-2-(2-furyl)-pyrazolo [4,3-e]1,2,4-triazolo[1,5-c]pyrimidine]-urea] the “inhibition of P-gp activity (in words)” value (P-gp [1]) was “strong inhibitors of P-gp activity” and the “% of Rh123 negative cells” value (P-gp [1]) was 0.4 ± 0.2%.

For CCCn1cc2c(nc(NC(=O)Nc3ccc(OC)cc3)n3nc(-c4ccco4)nc23)n1 [MRE3008F20, 5-[[(4-Methoxyphenyl)amino]carbonyl]amino-8-propyl-2-(2-furyl)-pyrazolo[4,3-e]1,2,4-triazolo[1,5-c]pyrimidine], the “P-gp mediated Rh123 transport (in words)” value (P-gp [2]; MRE3008F20 10 μM) was “completely blockade of P-gp mediated Rh123 transport”, the “inhibition of P-gp activity (in words)” value (P-gp [1]) was “near total P-gp inhibition; also recorded: strong inhibitors of P-gp activity” and the “% of Rh123 negative cells” value (P-gp [1]) was 0.5 ± 0.3%.

In the case of Cc1ccc(NC(=O)Nc2nc3nn(C)cc3c3nc(-c4ccco4)nn23)cc1 [MRE 3046F20, 5-N-(4-methylphenyl-carbamoyl)amino-8-methyl-2 (2-furyl)-pyrazolo-[4,3e]-1,2,4-triazolo[1,5-c]pyrimidine], the “inhibition of P-gp activity (in words)” value (P-gp [1]) is reported as “strong inhibitors of P-gp activity”.

For CCCn1cc2c(nc(NC(=O)Nc3ccccc3)n3nc(-c4ccco4)nc23)n1 [MRE 3055F20, 5-N-(4-phenylcarbamoyl)amino-8-propyl-2 (2furyl)-pyrazolo[4,3e]-1,2,4triazolo-[1,5c]pyrimidine], the “inhibition of P-gp activity (in words)” value (P-gp [1]) was “strong inhibitors of P-gp activity”.

With CCCCn1cc2c(nc(NC(=O)Nc3ccccc3)n3nc(-c4ccco4)nc23)n1 [MRE 3062F20, 5-N-(4-phenyl-carbamoyl)amino-8-butyl-2(2furyl)-pyrazolo-[4,3e]-1,2,4triazolo[1,5-c]pyrimidine] the “inhibition of P-gp activity (in words)” value (P-gp [1]) was “strong inhibitors of P-gp activity” and the “% of Rh123 negative cells” value (P-gp [1]) was 1.0 ± 0.2%.

C[S+]([O-])c1ccc(-c2nc(-c3ccncc3)c(-c3ccc(F)cc3)[nH]2)cc1 (centres unmarked) [SB203580] was tested, and the “G2/M accumulation rate of inhibitor plus paclitaxel or vindesine respect to paclitaxel or vindesine alone (in words)” value (A375 cells) was “did not alter”.

With N#CC(=C(/N)Sc1ccccc1N)/C(C#N)=C(\N)Sc1ccccc1N [U0126] the “G2/M accumulation rate of inhibitor plus paclitaxel or vindesine respect to paclitaxel or vindesine alone (in words)” value (A375 cells; A375, PD98059 20 μM, U0126 30 μM, SB203580 1 μM) was “did not alter” and the “effect on MRE 3008F20 blockade of P-gp (in words)” value (P-gp [2]; U0126 30 μM for 30 minutes, then MRE3008F20 10 μM) was “failed to prevent”.

Nc1nc(NCCc2ccc(O)cc2)nc2nc(-c3ccco3)nn12 [ZM 241385, 4-(2-[7-amino-2-(2-furyl)-[1,2,4]triazolo[2,3-a][1,3,5]triazin-5-ylamino]ethyl)phenol] was tested, and the “inhibition of P-gp activity (in words)” value (P-gp [1]) was “much lower effect on P-gp activity”.

COc1cccc2c1C(=O)c1c(O)c3c(c(O)c1C2=O)C[C@@](O)(C(=O)CO)C[C@@H]3O[C@H]1C[C@H](N)[C@H](O)[C@H](C)O1 [doxorubicin] was tested, and the IC50 ([3]; with IL-10 0.5 μg/ml) was 0.31 µg/mL (≈ 0.57 µM), the IC50 ([3]; with IL-11 0.5 μg/ml) was 0.38 µg/mL (≈ 0.699 µM) and the IC50 ([3]; with MRE3008F20 1 μg/ml) was 0.28 µg/mL (≈ 0.515 µM). For the same molecule, the “HT29 more refractory than the A375 cell line” value [3] was “approximately 30 fold”.

CCc1c2c(nc3ccc(OC(=O)N4CCC(N5CCCCC5)CC4)cc13)-c1cc3c(c(=O)n1C2)COC(=O)[C@]3(O)CC [irinotecan HCL] showed an IC50 ([3]; with IL-10 0.5 μg/ml) of 0.77 µg/mL, an IC50 ([3]; with IL-11 0.5 μg/ml) of 0.85 µg/mL and an IC50 ([3]; with MRE3008F20 1 μg/ml) of 0.53 µg/mL. It also gave an IC50 ([4]; with IL-10 0.5 μg/ml) of 0.67 µg/mL, an IC50 ([4]; with IL-11 0.5 μg/ml) of 0.061 µg/mL and an IC50 ([4]; with MRE3008F20 1 μg/ml) of 0.57 µg/mL.

In the case of O=C1c2c(O)ccc(O)c2C(=O)c2c(NCCNCCO)ccc(NCCNCCO)c21 [mitoxantrone], the “HT29 more refractory than the A375 cell line” value [3] is reported as “approximately 30 fold”.

For CC[C@]1(O)C[C@@H]2CN(CCc3c([nH]c4ccccc34)[C@@](C(=O)OC)(c3cc4c(cc3OC)N(C)[C@H]3[C@@](O)(C(=O)OC)[C@H](OC(C)=O)[C@]5(CC)C=CCN6CC[C@]43[C@@H]65)C2)C1 [vinblastine], the IC50 ([4]; with IL-10 0.5 μg/ml) was 0.0011 µg/mL (≈ 0.00136 µM), the IC50 ([4]; with IL-11 0.5 μg/ml) was 0.00094 µg/mL (≈ 0.00116 µM) and the IC50 ([4]; with MRE3008F20 1 μg/ml) was 0.0013 µg/mL (≈ 0.0016 µM).
